From patent US20230356105A1, “TETRAAZADODECANE BASED CHELATING AGENTS FOR SEPARATION OF RARE EARTH ELEMENTS AND METHOD THEREFOR” (Ustav Organicke Chemie a Biochemie AV CR V.V.I., priority 2020, published 2023)
“And” between values parts separate entries of the source, which are not always exact repeats. Equal entries are not always repeated. Marks after values point to notes of the source that are not given here.

What was measured:
[1] = Separation of binary mixture of rare-earth metals by precipitation from solution using L1 (Example 7); format: physicochemical; conditions: supernatant
Procedure: Two series of reaction mixtures were prepared, where one rare-earth metal was held constant (Gd or Lu) while the other was a variable rare-earth metal element (except Pm). […] The well plate was sealed with transparent adhesive tape to prevent evaporation and was anchored to a shaker. The well-plate was shaken for 5 days at room temperature at 900 rpm.

[2] = Separation of Gd/Lu mixture by repeated precipitation using L1 (Example 13); format: physicochemical; conditions: for Precipitate concentration [mM] Gd / Precipitate concentration [mM] Lu: dissolved to 200 μL
Procedure: Stock solutions were pipetted into round-bottom 2 mL Eppendorf tubes as follows: • 1. 10 μL 100 mM aqueous solution of GdCl3 • 2. 10 μL 100 mM aqueous solution of LuCl3 • 3. 20 μL 100 mM aqueous solution of compound • 4. 33.3 μL 3 M MOPS buffer pH=7. • 5. 127.6 μL water.
Nine identical reaction mixtures were prepared and split into three groups A, B, C. Each tube was equipped with one PTFE-coated magnetic stir bar and sealed, and the mixture was stirred on a magnetic stirrer for 24 hours at room temperature. The tubes were then centrifuged and the supernatants were carefully pipetted out and transferred to a new set of tubes. Precipitates from group A were dissolved by addition of 100 μL 1 M HCl at room temperature over the course of 30 mins and then diluted to 200 μL by the addition of 100 μL water. Concentrations of Gd and Lu in the supernatants and in re-dissolved precipitates from group A were determined by ICP-OES. Precipitates from groups B and C were further processed as follows: the precipitates were dissolved by addition of 100 μL 1 M HCl at room temperature at pH 0 over the course of 30 mins, and the pH was then adjusted to approximately 7 by the addition of 50 μL 2 M NaOH, and the overall volume adjusted to 200 μL by the addition of water. The prepared mixtures were subjected to a second round of precipitation and were stirred on a magnetic stirrer for 24 hours at room temperature. Then, the tubes were again centrifuged and supernatants were carefully pipetted out and transferred to a new set of tubes. Samples from group B were treated identically to the samples from group A previously, and the Gd and Lu content in the supernatants and precipitates was determined by ICP-OES. Precipitates from group C were subjected to a third cycle of precipitation and followed by Gd and Lu content determination analogously to the procedures described above.

O=C(O)CN1CCN(CC(=O)O)CCN(Cc2ccccc2)CCN(CC(=O)O)CC1 [L1, 2,2′,2″-(10-benzyl-1,4,7,10-tetraazacyclododecane-1,4,7-triyl)triacetic Acid]
[mM] Gd ([1]; M1=Ce, M2=Gd): 0.149 mM | [mM] M1 ([1]; M1=Ce, M2=Gd): 0.349 mM | [mM] Lu ([1]; M1=Ce, M2=Lu): 5.174 mM | [mM] M1 ([1]; M1=Ce, M2=Lu): 5.195 mM | [mM] Gd ([1]; M1=Dy, M2=Gd): 0.196 mM | [mM] M1 ([1]; M1=Dy, M2=Gd): 0.344 mM | [mM] Lu ([1]; M1=Dy, M2=Lu): 5.252 mM | [mM] M1 ([1]; M1=Dy, M2=Lu): 5.268 mM | [mM] Gd ([1]; M1=Er, M2=Gd): 5.127 mM | [mM] M1 ([1]; M1=Er, M2=Gd): 5.697 mM | [mM] Lu ([1]; M1=Er, M2=Lu): 5.298 mM | [mM] M1 ([1]; M1=Er, M2=Lu): 5.558 mM | [mM] Gd ([1]; M1=Eu, M2=Gd): 0.141 mM | [mM] M1 ([1]; M1=Eu, M2=Gd): 0.157 mM | [mM] Lu ([1]; M1=Eu, M2=Lu): 6.000 mM | [mM] M1 ([1]; M1=Eu, M2=Lu): 5.459 mM | [mM] Gd ([1]; M1=Gd, M2=Gd): 0.208 mM | [mM] M1 ([1]; M1=Gd, M2=Gd): 0.208 mM | [mM] Lu ([1]; M1=Gd, M2=Lu): 3.875 mM | [mM] M1 ([1]; M1=Gd, M2=Lu): 0.325 mM | [mM] Gd ([1]; M1=Ho, M2=Gd): 0.219 mM | [mM] M1 ([1]; M1=Ho, M2=Gd): 0.522 mM | [mM] Lu ([1]; M1=Ho, M2=Lu): 5.643 mM | [mM] M1 ([1]; M1=Ho, M2=Lu): 5.424 mM | [mM] Gd ([1]; M1=La, M2=Gd): 0.134 mM | [mM] M1 ([1]; M1=La, M2=Gd): 0.535 mM | [mM] Lu ([1]; M1=La, M2=Lu): 5.188 mM | [mM] M1 ([1]; M1=La, M2=Lu): 4.968 mM | [mM] Gd ([1]; M1=Lu, M2=Gd): 0.291 mM | [mM] M1 ([1]; M1=Lu, M2=Gd): 4.93 mM | [mM] Lu ([1]; M1=Lu, M2=Lu): 5.403 mM | [mM] M1 ([1]; M1=Lu, M2=Lu): 5.403 mM | [mM] Gd ([1]; M1=Nd, M2=Gd): 0.169 mM | [mM] M1 ([1]; M1=Nd, M2=Gd): 0.249 mM | [mM] Lu ([1]; M1=Nd, M2=Lu): 4.301 mM | [mM] M1 ([1]; M1=Nd, M2=Lu): 0.456 mM | [mM] Gd ([1]; M1=Pr, M2=Gd): 0.161 mM | [mM] M1 ([1]; M1=Pr, M2=Gd): 0.268 mM | [mM] Lu ([1]; M1=Pr, M2=Lu): 5.165 mM | [mM] M1 ([1]; M1=Pr, M2=Lu): 5.067 mM | [mM] Gd ([1]; M1=Sc, M2=Gd): 0.295 mM | [mM] M1 ([1]; M1=Sc, M2=Gd): 5.882 mM | [mM] Lu ([1]; M1=Sc, M2=Lu): 4.903 mM | [mM] M1 ([1]; M1=Sc, M2=Lu): 5.49 mM | [mM] Gd ([1]; M1=Sm, M2=Gd): 0.165 mM | [mM] M1 ([1]; M1=Sm, M2=Gd): 0.179 mM | [mM] Lu ([1]; M1=Sm, M2=Lu): 4.229 mM | [mM] M1 ([1]; M1=Sm, M2=Lu): 0.305 mM | [mM] Gd ([1]; M1=Tb, M2=Gd): 0.162 mM | [mM] M1 ([1]; M1=Tb, M2=Gd): 0.235 mM | [mM] Lu ([1]; M1=Tb, M2=Lu): 5.094 mM | [mM] M1 ([1]; M1=Tb, M2=Lu): 5.272 mM | [mM] Gd ([1]; M1=Tm, M2=Gd): 0.239 mM | [mM] M1 ([1]; M1=Tm, M2=Gd): 2.653 mM | [mM] Lu ([1]; M1=Tm, M2=Lu): 5.423 mM | [mM] M1 ([1]; M1=Tm, M2=Lu): 5.453 mM | [mM] Gd ([1]; M1=Y, M2=Gd): 0.183 mM | [mM] M1 ([1]; M1=Y, M2=Gd): 0.471 mM | [mM] Lu ([1]; M1=Y, M2=Lu): 5.188 mM | [mM] M1 ([1]; M1=Y, M2=Lu): 5.24 mM | [mM] Gd ([1]; M1=Yb, M2=Gd): 0.279 mM | [mM] M1 ([1]; M1=Yb, M2=Gd): 4.218 mM | [mM] Lu ([1]; M1=Yb, M2=Lu): 5.148 mM | [mM] M1 ([1]; M1=Yb, M2=Lu): 5.226 mM | Supernatant concentration [mM] Lu ([2]; group A, 1st precipitation): 4.28 mM and 4.35 mM and 4.12 mM and 4.36 mM | Precipitate concentration [mM] Gd ([2]; group A, 1st precipitation): 4.24 mM and 4.38 mM and 4.22 mM and 4.12 mM | Precipitate concentration [mM] Lu ([2]; group A, 1st precipitation): 0.99 mM and 1.08 mM and 0.98 mM and 0.90 mM | Supernatant concentration [mM] Lu ([2]; group B, 2nd precipitation): 0.80 mM and 0.83 mM and 0.77 mM | Precipitate concentration [mM] Gd ([2]; group B, 2nd precipitation): 3.33 mM and 3.40 mM and 3.70 mM and 3.48 mM | Precipitate concentration [mM] Lu ([2]; group B, 2nd precipitation): 0.23 mM and 0.21 mM and 0.22 mM (2×) | Supernatant concentration [mM] Lu ([2]; group C, 3rd precipitation): 0.24** mM and 0.17 mM and 0.16 mM and 0.19 mM | Precipitate concentration [mM] Lu ([2]; group C, 3rd precipitation): 0.05** mM and 0.07 mM and 0.06 mM
